Test results as given in PubChem BioAssay AID1963834 (Molecular Pharmacology Branch, DTP, NCI, 2024).

System: 873145-292-R-J1-PDC complex spheroid viability
Assay: Anticancer human tumor 873145-292-R-J1-PDC patient-derived renal clear cell carcinoma cell line growth inhibition [POLQ]
Details: for IC50: curve of first compound; for viability, T/C: stronger effect = lower value
In short: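 Complex spheroid viability model combining PDC tumour cells with endothelial (HUVEC) and MSC stromal cells. Novobiocin, ART-558 or RP6685 were tested singly and in combination with standard and investigational anticancer drugs. Each was titrated in half-log steps from near clinical Cmax, or from 10 microM where Cmax was unknown.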

[1] = second compound 0.0316 µM, first compound 0.0316 µM
[2] = second compound 0.0316 µM, first compound 0.1 µM
[3] = second compound 0.0316 µM, first compound 0.316 µM
[4] = second compound 0.0316 µM, first compound 1 µM
[5] = second compound 0.0316 µM, first compound 3.16 µM
[6] = second compound 0.0316 µM, first compound 10 µM
[7] = second compound 0.1 µM, first compound 0.0316 µM
[8] = second compound 0.1 µM, first compound 0.1 µM
[9] = second compound 0.1 µM, first compound 0.316 µM
[10] = second compound 0.1 µM, first compound 1 µM
[11] = second compound 0.1 µM, first compound 3.16 µM
[12] = second compound 0.1 µM, first compound 10 µM
[13] = second compound 0.316 µM, first compound 0.0316 µM
[14] = second compound 0.316 µM, first compound 0.1 µM
[15] = second compound 0.316 µM, first compound 0.316 µM
[16] = second compound 0.316 µM, first compound 1 µM
[17] = second compound 0.316 µM, first compound 3.16 µM
[18] = second compound 0.316 µM, first compound 10 µM
[19] = second compound 1 µM, first compound 0.0316 µM
[20] = second compound 1 µM, first compound 0.1 µM
[21] = second compound 1 µM, first compound 0.316 µM
[22] = second compound 1 µM, first compound 1 µM
[23] = second compound 1 µM, first compound 3.16 µM
[24] = second compound 1 µM, first compound 10 µM
[25] = second compound 3.16 µM, first compound 0.0316 µM
[26] = second compound 3.16 µM, first compound 0.1 µM
[27] = second compound 3.16 µM, first compound 0.316 µM
[28] = second compound 3.16 µM, first compound 1 µM
[29] = second compound 3.16 µM, first compound 3.16 µM
[30] = second compound 3.16 µM, first compound 10 µM
[31] = second compound 10 µM, first compound 0.0316 µM
[32] = second compound 10 µM, first compound 0.1 µM
[33] = second compound 10 µM, first compound 0.316 µM
[34] = second compound 10 µM, first compound 1 µM
[35] = second compound 10 µM, first compound 3.16 µM
[36] = second compound 10 µM, first compound 10 µM
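Also: spheroids exposed to compounds for 7 days before viability readout.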
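For viability, T/C in this document: luminescence signal used as surrogate for viable cell content; 100% = DMSO vehicle control viability.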

Compound `CC1COCCN1c1cc(C2(O)CC3CCC(C2)O3)c2cnn(-c3ccn[nH]3)c2n1` (stereo not drawn) + COC1C(OC(N)=O)C(O)C(Oc2ccc3c(O)c(NC(=O)c4ccc(O)c(CC=C(C)C)c4)c(=O)oc3c2C)OC1(C)C has an IC50 (second compound 0.0316 µM) of 0.423 µM, an IC50 (second compound 0.1 µM) of 0.562 µM and an IC50 (second compound 0.316 µM) of 0.311 µM. It also gave an IC50 (second compound 1 µM) of 0.484 µM, an IC50 (second compound 3.16 µM) of 0.362 µM and an IC50 (second compound 10 µM) of 0.691 µM. The viability, T/C [1] was 90.3%, the viability, T/C [2] was 71.8% and the viability, T/C [3] was 53.9%. The viability, T/C [4] was 40.4%, the viability, T/C [5] was 38.6% and the viability, T/C [6] was 37.2%. It also gave a viability, T/C [7] of 85.8%, a viability, T/C [8] of 67.2% and a viability, T/C [9] of 57.1%. For the same compound, the viability, T/C [10] was 43.6%, the viability, T/C [11] was 39.3% and the viability, T/C [12] was 38.5%. The viability, T/C [13] was 86.3%, the viability, T/C [14] was 72.9% and the viability, T/C [15] was 50.2%. It also gave a viability, T/C [16] of 40.2%, a viability, T/C [17] of 49.5% and a viability, T/C [18] of 37.7%. The viability, T/C [19] was 84.3%, the viability, T/C [20] was 68.6% and the viability, T/C [21] was 58.5%. The viability, T/C [22] was 38.9%, the viability, T/C [23] was 36.3% and the viability, T/C [24] was 37%. For the same compound, the viability, T/C [25] was 93.8%, the viability, T/C [26] was 73.5% and the viability, T/C [27] was 52.9%. For the same compound, the viability, T/C [28] was 38.3%, the viability, T/C [29] was 36.2% and the viability, T/C [30] was 38.5%. For the same compound, the viability, T/C [31] was 87.7%, the viability, T/C [32] was 71.9% and the viability, T/C [33] was 58.3%. For the same compound, the viability, T/C [34] was 45.6%, the viability, T/C [35] was 41.6% and the viability, T/C [36] was 40.9%.

In the case of `CC(=O)O[C@H]1C(=O)[C@@]2(C)[C@H]([C@H](OC(=O)c3ccccc3)[C@]3(O)C[C@H](OC(=O)[C@H](O)[C@@H](NC(=O)c4ccccc4)c4ccccc4)C(C)=C1C3(C)C)[C@]1(OC(C)=O)CO[C@@H]1C[C@@H]2O` + Cc1cccc(N(C)C(=O)C2C(O)CCN2c2nc(C)cc(C(F)(F)F)c2C#N)c1, the IC50 (second compound 0.0316 µM) is reported as over 3 µM, the IC50 (second compound 0.1 µM) is reported as over 3 µM and the IC50 (second compound 0.316 µM) is reported as over 3 µM. For the same compound, the IC50 (second compound 1 µM) was over 3 µM, the IC50 (second compound 3.16 µM) was over 3 µM and the IC50 (second compound 10 µM) was over 3 µM. The viability, T/C (second compound 0.0316 µM, first compound 0.00949 µM) was 92.4%, the viability, T/C (second compound 0.0316 µM, first compound 0.03 µM) was 75.9% and the viability, T/C (second compound 0.0316 µM, first compound 0.0949 µM) was 74.7%. The viability, T/C (second compound 0.0316 µM, first compound 0.3 µM) was 69.1%, the viability, T/C (second compound 0.0316 µM, first compound 0.949 µM) was 72.8% and the viability, T/C (second compound 0.0316 µM, first compound 3 µM) was 74.9%. The viability, T/C (second compound 0.1 µM, first compound 0.00949 µM) was 92%, the viability, T/C (second compound 0.1 µM, first compound 0.03 µM) was 99% and the viability, T/C (second compound 0.1 µM, first compound 0.0949 µM) was 67%. For the same compound, the viability, T/C (second compound 0.1 µM, first compound 0.3 µM) was 77.7%, the viability, T/C (second compound 0.1 µM, first compound 0.949 µM) was 68.6% and the viability, T/C (second compound 0.1 µM, first compound 3 µM) was 66.3%. It also gave a viability, T/C (second compound 0.316 µM, first compound 0.00949 µM) of 94.5%, a viability, T/C (second compound 0.316 µM, first compound 0.03 µM) of 82.4% and a viability, T/C (second compound 0.316 µM, first compound 0.0949 µM) of 76.2%. For the same compound, the viability, T/C (second compound 0.316 µM, first compound 0.3 µM) was 74.1%, the viability, T/C (second compound 0.316 µM, first compound 0.949 µM) was 76.5% and the viability, T/C (second compound 0.316 µM, first compound 3 µM) was 70.3%. For the same compound, the viability, T/C (second compound 1 µM, first compound 0.00949 µM) was 79.7%, the viability, T/C (second compound 1 µM, first compound 0.03 µM) was 84.3% and the viability, T/C (second compound 1 µM, first compound 0.0949 µM) was 81.8%. The viability, T/C (second compound 1 µM, first compound 0.3 µM) was 77.8%, the viability, T/C (second compound 1 µM, first compound 0.949 µM) was 73.3% and the viability, T/C (second compound 1 µM, first compound 3 µM) was 69.3%. It also gave a viability, T/C (second compound 3.16 µM, first compound 0.00949 µM) of 84.7%, a viability, T/C (second compound 3.16 µM, first compound 0.03 µM) of 85.6% and a viability, T/C (second compound 3.16 µM, first compound 0.0949 µM) of 72.5%. It also gave a viability, T/C (second compound 3.16 µM, first compound 0.3 µM) of 71.5%, a viability, T/C (second compound 3.16 µM, first compound 0.949 µM) of 80.3% and a viability, T/C (second compound 3.16 µM, first compound 3 µM) of 80.4%. The viability, T/C (second compound 10 µM, first compound 0.00949 µM) was 75.4%, the viability, T/C (second compound 10 µM, first compound 0.03 µM) was 80.3% and the viability, T/C (second compound 10 µM, first compound 0.0949 µM) was 75.8%. The viability, T/C (second compound 10 µM, first compound 0.3 µM) was 65.9%, the viability, T/C (second compound 10 µM, first compound 0.949 µM) was 75.6% and the viability, T/C (second compound 10 µM, first compound 3 µM) was 71.2%.

`COc1cc(C2c3cc4c(cc3C(OC3OC5COC(C)OC5C(O)C3O)C3COC(=O)C23)OCO4)cc(OC)c1O` (stereo not drawn) + Cc1cccc(N(C)C(=O)C2C(O)CCN2c2nc(C)cc(C(F)(F)F)c2C#N)c1 gave an IC50 (second compound 0.0316 µM) of 9.59 µM, an IC50 (second compound 0.1 µM) of over 10 µM and an IC50 (second compound 0.316 µM) of 8.71 µM. The IC50 (second compound 1 µM) was 8.98 µM, the IC50 (second compound 3.16 µM) was 9.5 µM and the IC50 (second compound 10 µM) was over 10 µM. The viability, T/C [1] was 97.9%, the viability, T/C [2] was 98.3% and the viability, T/C [3] was 86.8%. It also gave a viability, T/C [4] of 81.4%, a viability, T/C [5] of 68.2% and a viability, T/C [6] of 48.9%. For the same compound, the viability, T/C [7] was 91.2%, the viability, T/C [8] was 94.5% and the viability, T/C [9] was 87.4%. It also gave a viability, T/C [10] of 90.1%, a viability, T/C [11] of 68.9% and a viability, T/C [12] of 53.5%. The viability, T/C [13] was 99.6%, the viability, T/C [14] was 97.1% and the viability, T/C [15] was 78.5%. The viability, T/C [16] was 86.8%, the viability, T/C [17] was 68.3% and the viability, T/C [18] was 46.2%. The viability, T/C [19] was 94.6%, the viability, T/C [20] was 96.7% and the viability, T/C [21] was 95%. The viability, T/C [22] was 87%, the viability, T/C [23] was 68.8% and the viability, T/C [24] was 48%. The viability, T/C [25] was 98.9%, the viability, T/C [26] was 82.5% and the viability, T/C [27] was 91.1%. The viability, T/C [28] was 85.8%, the viability, T/C [29] was 74% and the viability, T/C [30] was 48.4%. The viability, T/C [31] was 96.7%, the viability, T/C [32] was 85.3% and the viability, T/C [33] was 81.6%. For the same compound, the viability, T/C [34] was 72.3%, the viability, T/C [35] was 60% and the viability, T/C [36] was 57.1%.

Compound `O=c1[nH]cc(F)c(=O)[nH]1` + Cc1cccc(N(C)C(=O)C2C(O)CCN2c2nc(C)cc(C(F)(F)F)c2C#N)c1 has an IC50 (second compound 0.0316 µM) of over 10 µM, an IC50 (second compound 0.1 µM) of over 10 µM and an IC50 (second compound 0.316 µM) of over 10 µM. The IC50 (second compound 1 µM) was over 10 µM, the IC50 (second compound 3.16 µM) was over 10 µM and the IC50 (second compound 10 µM) was over 10 µM. The viability, T/C [1] was 106%, the viability, T/C [2] was 104% and the viability, T/C [3] was 99.8%. For the same compound, the viability, T/C [4] was 102%, the viability, T/C [5] was 115% and the viability, T/C [6] was 93.3%. The viability, T/C [7] was 118%, the viability, T/C [8] was 101% and the viability, T/C [9] was 103%. For the same compound, the viability, T/C [10] was 109%, the viability, T/C [11] was 97.2% and the viability, T/C [12] was 100%. For the same compound, the viability, T/C [13] was 98.3%, the viability, T/C [14] was 106% and the viability, T/C [15] was 91.4%. The viability, T/C [16] was 92.4%, the viability, T/C [17] was 117% and the viability, T/C [18] was 102%. The viability, T/C [19] was 102%, the viability, T/C [20] was 113% and the viability, T/C [21] was 100%. It also gave a viability, T/C [22] of 95%, a viability, T/C [23] of 109% and a viability, T/C [24] of 96.8%. It also gave a viability, T/C [25] of 93.5%, a viability, T/C [26] of 101% and a viability, T/C [27] of 87.7%. The viability, T/C [28] was 92.6%, the viability, T/C [29] was 101% and the viability, T/C [30] was 104%. It also gave a viability, T/C [31] of 98.6%, a viability, T/C [32] of 92.9% and a viability, T/C [33] of 94.7%. It also gave a viability, T/C [34] of 98.4%, a viability, T/C [35] of 104% and a viability, T/C [36] of 92%.
